Measured values as given in patent US20110274656A1, “PHARMACEUTICAL COMPOSITION FOR PREVENTING OR TREATING HEPATITIS C, COMPRISING THE ROOTS EXTRACT OF PLATYCODON GRANDIFLORUM OR PLATYCODON GRANDIFLORUM SAPONIN COMPONENTS” (B&C Biopharm Co., Ltd., priority 2009, published 2011).

Tested on: HCV subgenomic RNA replicon in Huh-7 human hepatoma cell line
Assay: HCV RNA replication inhibitory activity in HCV replicon (subgenomic RNA replicon) cell line
Assay type: cell-based, HCV-1b Hepatitis C virus
Settings: Huh-7 cells harboring HCV-1b subgenomic replicon, 72 hours, RT-PCR
Method: To screen a compound that is capable of inhibiting HCV replication, each compound was added to Huh-7 human hepatoma cell line harboring HCV RNA replicon, followed by culture. Then, expression level of HCV RNA was quantified and its inhibitory activity was measured. HCV replicon used in this invention was derived from HCV-1b Hepatitis C virus gene that was bicistronic replicon composed of HCV IRES, neomycin resistant gene, EMCV (encephalomyocarditis virus) IRES. HCV non-structural proteins were composed of the sequences comprising NS3-NS5B and HCV 3′end. An expression vector harboring HCV replicon proceeded to in vitro transcription, and the obtained HCV replicon was transfected into the Huh-7 cells by electroporation. To select only those cells having HCV replicon, Huh-7 cells were cultured with medium containing the antibiotic G418 (500 μg/ml). The selected cells were cultured with DMEM (Dulbecco's modified Eagles media) containing 10% FBS, non-essential amino acids and 500 μg/ml of G418.
Huh-7 cells harboring HCV subgenomic RNA replicon were cultured overnight in 6 well plate (3×10^5 cells/well), at 37° C. and 5% CO2 with DMEM containing 10% FBS, non-essential amino acids and 500 μg/ml of G418. Medium of each well was replaced with DMEM containing 2% FBS, non-essential amino acids and 500 μg/ml of G418. Test compound was dissolved in DMSO, which was added to each well at different concentrations, followed by culture in a 5% CO2 incubator at 37° C. for 72 hours. Equal amount of DMSO (negative control) and Interferon-α (positive control) were added as controls. Upon completion of the culture, medium of each well was eliminated, followed by washing with 1 ml of PBS. 250 μl/well of trypsin/EDTA was added thereto and cells were separated from the plate and washed with PBS again to eliminate medium. Total RNA was isolated from the cells by using SV total RNA isolation system (Promega corporation), followed by quantification using GeneQuant pro (Amersham bioscience). EC50 against HCV replicon of each compound was investigated by RT-PCR and the result was compared with those of controls. RT-PCR was performed with the primer targeting HCV 1b NS5B region and by AccessQuick™ RT-PCR system (Promega corporation). To obtain more accurate EC50 values, quantitative real-time PCR was performed along with RT-PCR. cDNA was obtained from the isolated RNA by using Reverse transcription system (Promega corporation), followed by quantitative real-time PCR using iQ SYBR Green Supermix (Bio-rad). At the same time, one-step real time RT-PCR was performed using Taqman probe to investigate the inhibitory activity of each compound. At this time, the primer targeting HCV 5′-UTR was used and GAPDH (Glyceraldehyde-3-phosphate dehydrogenase) gene was used as a reference gene for correction. Real time RT-PCR was performed by using iCycler iQ5 system (Bio-rad). The EC50 value was calculated by iCycler iQ5 optical system software (Bio-rad) program to determine the inhibitory activity. HCV replicon inhibitory activity of saponin components of Platycodon grandiflorum, the roots extract of Platycodon grandiflorum and the composition containing the same of the present invention and sapogenin and prosapogenin is shown in Table 7 and Table 8.

Row | Compound | Inhibitory Activity EC50 (HCV RNA replication inhibitory activity of saponin components) [µg/mL]
1 | 2″-O-acetyl-deapiopolygalacin D2 [Compound 11] | >10
2 | 2″-O-acetyl-polygalacin D2 [Compound 12] | 1
3 | C[C@@H]1O[C@@H](O[C@H]2[C@H](OC(=O)[C@]34CCC(C)(C)C[C@H]3C3=CC[C@@H]5[C@@]6(C)C[C@H](O)[C@H](O[C@@H]7O[C@H](CO[C@@H]8O[C@H](CO[C@@H]9O[C@H](CO)[C@@H](O)[C@H](O)[C@H]9O)[C@@H](O)[C@H](O)[C@H]8O)[C@@H](O)[C@H](O)[C@H]7O)C(CO)(CO)[C@@H]6CC[C@@]5(C)[C@]3(C)C[C@H]4O)OC[C@H](O)[C@@H]2O)[C@H](O)[C@H](O)[C@H]1O[C@@H]1OC[C@@H](O)[C@H](O)[C@H]1O [Compound 1, deapioplatycoside E] | >10
4 | C[C@@H]1O[C@@H](O[C@H]2[C@H](OC(=O)[C@]34CCC(C)(C)C[C@H]3C3=CC[C@@H]5[C@@]6(C)C[C@H](O)[C@H](O[C@@H]7O[C@H](CO[C@@H]8O[C@H](CO[C@@H]9O[C@H](CO)[C@@H](O)[C@H](O)[C@H]9O)[C@@H](O)[C@H](O)[C@H]8O)[C@@H](O)[C@H](O)[C@H]7O)C(CO)(CO)[C@@H]6CC[C@@]5(C)[C@]3(C)C[C@H]4O)OC[C@H](O)[C@@H]2O)[C@H](O)[C@H](O)[C@H]1O[C@@H]1OC[C@@H](O)[C@H](O[C@@H]2OC[C@](O)(CO)[C@H]2O)[C@H]1O [Compound 2, platycoside E] | 0.7
5 | CC1OC(OC2C(OC(=O)C34CCC(C)(C)CC3C3=CCC5C6(C)CC(O)C(OC7OC(COC8OC(CO)C(O)C(O)C8O)C(O)C(O)C7O)C(CO)(CO)C6CCC5(C)C3(C)CC4O)OCC(O)C2O)C(O)C(O)C1OC1OCC(O)C(OC2OCC(O)(CO)C2O)C1O (stereo not shown) [Compound 3, platycodin D3] | 0.2
6 | C[C@@H]1O[C@@H](O[C@H]2[C@H](OC(=O)[C@]34CCC(C)(C)C[C@H]3C3=CC[C@@H]5[C@@]6(C)C[C@H](O)[C@H](O[C@@H]7O[C@H](CO)[C@@H](O)[C@H](O[C@@H]8O[C@H](CO)[C@@H](O)[C@H](O)[C@H]8O)[C@H]7O)[C@@](C)(CO)[C@@H]6CC[C@@]5(C)[C@]3(C)C[C@H]4O)OC[C@H](O)[C@@H]2O)[C@H](O)[C@H](O)[C@H]1O[C@@H]1OC[C@@H](O)[C@H](O[C@@H]2OC[C@](O)(CO)[C@H]2O)[C@H]1O [Compound 4, polygalacin D2] | >10
7 | C[C@@H]1O[C@@H](O[C@H]2[C@H](OC(=O)[C@]34CCC(C)(C)C[C@H]3C3=CC[C@@H]5[C@@]6(C)C[C@H](O)[C@H](O[C@@H]7O[C@H](CO)[C@@H](O)[C@H](O)[C@H]7O)[C@@](C)(CO)[C@@H]6CC[C@@]5(C)[C@]3(C)C[C@H]4O)OC[C@H](O)[C@@H]2O)[C@H](O)[C@H](O)[C@H]1O[C@@H]1OC[C@@H](O)[C@H](O[C@@H]2OC[C@](O)(CO)[C@H]2O)[C@H]1O [Compound 5, polygalacin D] | 0.8
8 | C[C@@H]1O[C@@H](O[C@H]2[C@H](OC(=O)[C@]34CCC(C)(C)C[C@H]3C3=CC[C@@H]5[C@@]6(C)C[C@H](O)[C@H](O[C@@H]7O[C@H](CO)[C@@H](O)[C@H](O)[C@H]7O)[C@](CO)(C(=O)O)[C@@H]6CC[C@@]5(C)[C@]3(C)C[C@H]4O)OC[C@H](O)[C@@H]2O)[C@H](O)[C@H](O)[C@H]1O[C@@H]1OC[C@@H](O)[C@H](O[C@@H]2OC[C@](O)(CO)[C@H]2O)[C@H]1O [Compound 6, platyconic acid A] | 0.2
9 | C[C@@H]1O[C@@H](O[C@H]2[C@H](OC(=O)[C@]34CCC(C)(C)C[C@H]3C3=CC[C@@H]5[C@@]6(C)C[C@H](O)[C@H](O[C@@H]7O[C@H](CO)[C@@H](O)[C@H](O[C@@H]8O[C@H](CO)[C@@H](O)[C@H](O)[C@H]8O)[C@H]7O)C(CO)(CO)[C@@H]6CC[C@@]5(C)[C@]3(C)C[C@H]4O)OC[C@H](O)[C@@H]2O)[C@H](O)[C@H](O)[C@H]1O[C@@H]1OC[C@@H](O)[C@H](O)[C@H]1O [Compound 7, deapioplatycodin D2] | 0.2
10 | C[C@@H]1O[C@@H](O[C@H]2[C@H](OC(=O)[C@]34CCC(C)(C)C[C@H]3C3=CC[C@@H]5[C@@]6(C)C[C@H](O)[C@H](O[C@@H]7O[C@H](CO)[C@@H](O)[C@H](O[C@@H]8O[C@H](CO)[C@@H](O)[C@H](O)[C@H]8O)[C@H]7O)C(CO)(CO)[C@@H]6CC[C@@]5(C)[C@]3(C)C[C@H]4O)OC[C@H](O)[C@@H]2O)[C@H](O)[C@H](O)[C@H]1O[C@@H]1OC[C@@H](O)[C@H](O[C@@H]2OC[C@](O)(CO)[C@H]2O)[C@H]1O [Compound 8, platycodin D2] | 0.1
11 | C[C@@H]1O[C@@H](O[C@H]2[C@H](OC(=O)[C@]34CCC(C)(C)C[C@H]3C3=CC[C@@H]5[C@@]6(C)C[C@H](O)[C@H](O[C@@H]7O[C@H](CO)[C@@H](O)[C@H](O)[C@H]7O)C(CO)(CO)[C@@H]6CC[C@@]5(C)[C@]3(C)C[C@H]4O)OC[C@H](O)[C@@H]2O)[C@H](O)[C@H](O)[C@H]1O[C@@H]1OC[C@@H](O)[C@H](O)[C@H]1O [Compound 9, deapioplatycodin D] | 0.2
12 | C[C@@H]1O[C@@H](O[C@H]2[C@H](OC(=O)[C@]34CCC(C)(C)C[C@H]3C3=CC[C@@H]5[C@@]6(C)C[C@H](O)[C@H](O[C@@H]7O[C@H](CO)[C@@H](O)[C@H](O)[C@H]7O)C(CO)(CO)[C@@H]6CC[C@@]5(C)[C@]3(C)C[C@H]4O)OC[C@H](O)[C@@H]2O)[C@H](O)[C@H](O)[C@H]1O[C@@H]1OC[C@@H](O)[C@H](O[C@@H]2OC[C@](O)(CO)[C@H]2O)[C@H]1O [Compound 10, platycodin D] | 0.1
13 | CC1(C)CC[C@]2(C(=O)O)[C@H](O)C[C@]3(C)C(=CC[C@@H]4[C@@]5(C)C[C@H](O)[C@H](O)C(CO)(CO)[C@@H]5CC[C@]43C)[C@@H]2C1 [Compound 14, platycodigenin] | >10
14 | CC1(C)CCC2(C(=O)O)C(O)CC3(C)C(=CCC4C5(C)CC(O)C(O)C(C)(CO)C5CCC43C)C2C1 (stereo not shown) [Compound 15, polygalacic acid] | 2
15 | COC(=O)C12CCC(C)(C)CC1C1=CCC3C4(C)CC(O)C(OC5OC(CO)C(O)C(O)C5O)C(CO)(CO)C4CCC3(C)C1(C)CC2O (stereo not shown) [Compound 18, platycodigenin 3-O-glucopyranoside 28-methyl ester] | >10
16 | COC(=O)C12CCC(C)(C)CC1C1=CCC3C4(C)CC(O)C(OC5OC(CO)C(O)C(OC6OC(CO)C(O)C(O)C6O)C5O)C(CO)(CO)C4CCC3(C)C1(C)CC2O (stereo not shown) [Compound 19, platycodigenin 3-O-laminaribioside 28-methyl ester] | >10
17 | platycogenic acid A lactone 3-O-glucopyranoside [Compound 17] | 2
18 | platycogenic acid A lactone [Compound 16] | 0.4
19 | platyconic acid A methyl ester [Compound 13] | 5
